Measured values reported in paper PMC5428663, “Identification of small molecule inhibitors of Interleukin-18” (Scientific Reports, 2017).
pEC50, pIC50, pKi: −log10 of the molar value.

Key:
[1] = test system: hIL-18 induced IFN-γ production in human KG-1 cells; assay: IFN-γ bioassay (hIL-18 induced IFN-γ production in KG-1 cells); assay type: cell-based; conditions: for inhibition of hIL-18 activities (IFN-γ secretion): KG-1 cells, 1 uM inhibitor, increasing hIL-18 (Fig. 4)
[2] = biological target: T1, hIL-18:ectvIL-18BP complex (Homo sapiens, UniProt Q14116); assay: biochemical; assay type: binding, human; ectromelia virus; conditions: for pIC50: 5% DMSO, read-out: IC50, inhibition of hIL-18:ectvIL-18BP complex formation
T1 construct: Mature human IL-18 was cloned into a modified pET vector containing a C-terminal 6x His tag; 6x His (C); made in house; host or cells: E. coli BL21 gold (DE3) with biotin ligase for hIL-18; E. coli BL21 (DE3) Rosetta-Gami 2 for MBP-ectvIL-18BP
T1 sequence (Q14116 37-193): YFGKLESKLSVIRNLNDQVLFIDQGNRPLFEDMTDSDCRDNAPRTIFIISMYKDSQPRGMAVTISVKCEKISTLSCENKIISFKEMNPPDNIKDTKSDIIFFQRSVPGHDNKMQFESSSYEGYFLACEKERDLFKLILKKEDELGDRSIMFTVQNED

Row | Compound | inhibition of hIL-18 activities (IFN-γ secretion) [1] | pKi [2] | fold difference of calculated Ki (ELISA) vs predicted Autodock Ki [2] | pIC50 [2] | pEC50 ([1]; Homo sapiens, KG-1 cells 1 × 10^6 cells ml^−1, constant hIL-18, 24 hr, read-out: EC50, inhibition of hIL-18 induced IFN-γ production)
1 | CCOC(=O)c1ccc(Nc2sc(C(=O)c3cccc([N+](=O)[O-])c3)c(N)c2C#N)cc1 [NSC201631, ethyl 4-[[4-amino-3-cyano-5-(3-nitrobenzoyl)thiophen-2-yl]amino]benzoate] | did not inhibit hIL-18 activities | 5.80 | approximately 2 fold | 4.36 | –
2 | O=C(Nc1cccc(-c2nc3ccccc3[nH]2)c1)c1ccc(C(=O)Nc2cccc(-c3nc4ccccc4[nH]3)c2)cc1 [NSC61610, 1-N,4-N-bis[3-(1H-benzimidazol-2-yl)phenyl]benzene-1,4-dicarboxamide] | small inhibitory effect | 6.70 | approximately 2 fold | 5.22 | –
3 | N#Cc1ccc(NC(=O)Nc2ccc(Oc3ccc(NC(=O)Nc4ccc(C#N)cc4)cc3)cc2)cc1 [NSC80734, 1-(4-cyanophenyl)-3-[4-[4-[(4-cyanophenyl)carbamoylamino]phenoxy]phenyl]urea] | best inhibition | 5.74 | approximately 4 fold | 4.28 | ~6.60
